According to patent US10093656B2, “Fused-ring or tricyclic aryl pyrimidine compound used as kinase inhibitor” (NANJING SANHOME PHARMACEUTICAL CO., LTD, priority 2015, dated 2018):

Columns and labels:
[1] = system: human skin squamous cell A431 xenograft (CDX); assay: Selectivity study in vivo, A431 xenograft (CDX) model; set-up: species or system BALB/c nude mice; details: Table 5 experiment, AZD9291 5 mg/kg
[2] = system: A431 cells EGFR WT; assay: A431 cell viability assay (Cell Titer-Glo, 6 days); assay type: cell-based, human
Outline: (§1)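 A431 (EGFR WT) and NCI-H1975 (EGFR L858R/T790M) cells treated for 6 days at 37° C, in duplicate with 10 three-fold doses from 10 μM to 0.508 nM final. Viability read as CellTiter-Glo luminescence. IC50 from four-parameter fit of % inhibition.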

[3] = target: T1, EGFR d746-750/T790M (Homo sapiens, UniProt P00533, DEL746-750/T790M); assay: EGFR d746-750/T790M enzyme HTRF inhibition assay; assay type: biochemical; details: 40 μM ATP
T1 construct: purchased Carna Biosciences (Japan)
Outline: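 0.025 nM enzyme with 1 μM biotin-TK1 peptide and 40 μM ATP, 60 min at 23° C; compound tested at 10 doses, 300 nM to 0.015 nM final. HTRF read (Eu-anti-TK1 antibody 2 nM, XL665 62.5 nM, 60 min at 23° C); IC50 from four-parameter fit of % inhibition.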

[4] = system: NCI-H1975 lung cancer patient-derived xenograft (CDX); assay: Pharmacodynamics study in vivo, NCI-H1975 xenograft (CDX) model; set-up: species or system BALB/c nude mice; details: AZD9291 5 mg/kg
Outline: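 Tumour volume, from two-dimensional caliper readings twice a week as V = 0.5 a×b2, followed over 21 days of daily oral dosing at 10 or 20 mg/kg. Hosts were female BALB/c nude mice, 6-8 weeks, bearing subcutaneous NCI-H1975 implants grown to about 150-200 mm^3 before treatment.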

[5] = system: NCI-H1975 cells EGFR L858R/T790M; assay: NCI-H1975 cell viability assay (Cell Titer-Glo, 6 days); assay type: cell-based; details: Homo sapiens, 144 h
Outline: as §1

T1 sequence (P00533 with tags, fused parts or gaps DEL746-750/T790M limits assumed): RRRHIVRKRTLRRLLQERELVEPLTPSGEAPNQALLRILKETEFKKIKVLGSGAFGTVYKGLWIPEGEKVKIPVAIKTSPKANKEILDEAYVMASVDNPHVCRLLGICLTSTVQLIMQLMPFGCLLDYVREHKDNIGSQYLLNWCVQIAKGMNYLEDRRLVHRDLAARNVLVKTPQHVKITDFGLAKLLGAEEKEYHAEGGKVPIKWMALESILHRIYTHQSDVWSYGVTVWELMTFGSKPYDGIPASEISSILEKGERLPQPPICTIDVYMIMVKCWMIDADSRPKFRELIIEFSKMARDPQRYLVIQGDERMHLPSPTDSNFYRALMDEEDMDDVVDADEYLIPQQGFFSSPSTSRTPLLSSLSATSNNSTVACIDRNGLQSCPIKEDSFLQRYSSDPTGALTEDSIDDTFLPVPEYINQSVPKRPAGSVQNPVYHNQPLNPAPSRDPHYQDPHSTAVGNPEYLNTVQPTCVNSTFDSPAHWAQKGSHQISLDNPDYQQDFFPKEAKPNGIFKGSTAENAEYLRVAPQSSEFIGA

SMILES: C=CC(=O)Nc1cc(Nc2ncc(F)c(-c3c4n(c5cc(F)ccc35)CCOC4)n2)c(OC)cc1N(C)CCN(C)C [Embodiment 33, N-(2-((2-(Dimethylamino)ethyl)(methyl)amino)-5-((5-fluoro-4-(7-fluoro-3,4-dihydro-1H-[1,4]oxazino[4,3-a]indol-10-yl)pyrimidin-2-yl)amino)-4-methoxyphenyl)acrylamide]
- Tumor Volume (mm^3) 4 days ([1]; day 4, oral once daily: 33, 34, 40, 42, 43 20 mg/kg): 202 mm^3
- Tumor Volume (mm^3) 11 days ([1]; day 11, oral once daily: 33, 34, 40, 42, 43 20 mg/kg): 428 mm^3
- Tumor Volume (mm^3) 18 days ([1]; day 18, oral once daily: 33, 34, 40, 42, 43 20 mg/kg): 930 mm^3
- IC50 ([2]; Homo sapiens, A-431, 144 h, A431 cells, 6 days): 693 nM
- A431:NCI-H1975 (ratio) ([2]; ratio of cell IC50 A431 to NCI-H1975): 7.7
- IC50 [3]: 0.4 nM
- Tumor Volume (mm^3) 4 days ([4]; day 4, oral daily: compound 30 10 mg/kg, 33, 34, 40, 42, 43 20 mg/kg): 91 mm^3
- Tumor Volume (mm^3) 7 days ([4]; day 7, oral daily: compound 30 10 mg/kg, 33, 34, 40, 42, 43 20 mg/kg): 68 mm^3
- Tumor Volume (mm^3) 11 days ([4]; day 11, oral daily: compound 30 10 mg/kg, 33, 34, 40, 42, 43 20 mg/kg): 43 mm^3
- Tumor Volume (mm^3) 14 days ([4]; day 14, oral daily: compound 30 10 mg/kg, 33, 34, 40, 42, 43 20 mg/kg): 27 mm^3
- Tumor Volume (mm^3) 18 days ([4]; day 18, oral daily: compound 30 10 mg/kg, 33, 34, 40, 42, 43 20 mg/kg): 9 mm^3
- Tumor Volume (mm^3) 21 days ([4]; day 21, oral daily: compound 30 10 mg/kg, 33, 34, 40, 42, 43 20 mg/kg): 3 mm^3
- IC50 [5]: 90 nM
